# Reference: PubChem BioAssay (NCI)
#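 Interpolation was linear, between the two tested concentrations surrounding the appropriate level; five concentrations were tested over 48 hours in 96-well plates. GI50 = concentration required for 50% inhibition of growth. TGI marks complete inhibition of growth.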
# Experiments:
# Assay in all cases: NCI anticancer screen, dose series, 48 h
# DU-145 prostate = tested on: DU-145 prostate
# HL-60(TB) leukemia = tested on: HL-60(TB) leukemia
# KM12 colon = tested on: KM12 colon
# A498 renal = tested on: A498 renal
# ACHN renal = tested on: ACHN renal
# NCI-H522 lung = tested on: NCI-H522 lung
# EKVX NSCLC = tested on: EKVX NSCLC
# PC-3 prostate = tested on: PC-3 prostate
# MDA-N = tested on: MDA-N
# K-562 leukemia = tested on: K-562 leukemia
# HCT-15 colon = tested on: HCT-15 colon
# NCI/ADR-RES ovarian = tested on: NCI/ADR-RES ovarian
# UACC-257 melanoma = tested on: UACC-257 melanoma
# NCI-H460 lung = tested on: NCI-H460 lung
# U251 CNS = tested on: U251 CNS
# HS 578T breast = tested on: HS 578T breast
# HCT-116 colon = tested on: HCT-116 colon
# MDA-MB-435 = tested on: MDA-MB-435
# SF-268 CNS = tested on: SF-268 CNS
# SK-MEL-2 melanoma = tested on: SK-MEL-2 melanoma
# LOX IMVI melanoma = tested on: LOX IMVI melanoma
# OVCAR-8 ovarian = tested on: OVCAR-8 ovarian
# IGROV1 ovarian = tested on: IGROV1 ovarian
# SW-620 colon = tested on: SW-620 colon
# M14 melanoma = tested on: M14 melanoma
# HT29 colon = tested on: HT29 colon
# OVCAR-4 ovarian = tested on: OVCAR-4 ovarian
# 786-0 renal = tested on: 786-0 renal
# HOP-62 NSCLC = tested on: HOP-62 NSCLC
# NCI-H23 lung = tested on: NCI-H23 lung
# RPMI-8226 leukemia = tested on: RPMI-8226 leukemia
# SF-295 CNS = tested on: SF-295 CNS
# BT-549 breast = tested on: BT-549 breast
# TK-10 renal = tested on: TK-10 renal
# SK-MEL-5 melanoma = tested on: SK-MEL-5 melanoma
# SNB-75 CNS = tested on: SNB-75 CNS
# A549 NSCLC = tested on: A549 NSCLC
# UO-31 renal = tested on: UO-31 renal
# HOP-92 NSCLC = tested on: HOP-92 NSCLC
# MOLT-4 leukemia = tested on: MOLT-4 leukemia
# SK-MEL-28 melanoma = tested on: SK-MEL-28 melanoma
# NCI-H226 lung = tested on: NCI-H226 lung
# MDA-MB-231 breast = tested on: MDA-MB-231 breast
# CAKI-1 renal = tested on: CAKI-1 renal
# OVCAR-3 ovarian = tested on: OVCAR-3 ovarian
# HCC-2998 colon = tested on: HCC-2998 colon
# MCF7 breast = tested on: MCF7 breast
# RXF 393 renal = tested on: RXF 393 renal
# SF-539 CNS = tested on: SF-539 CNS
# T-47D breast = tested on: T-47D breast
# SR leukemia = tested on: SR leukemia
# OVCAR-5 ovarian = tested on: OVCAR-5 ovarian
# SN12C renal = tested on: SN12C renal
# SK-OV-3 ovarian = tested on: SK-OV-3 ovarian
# SNB-19 CNS = tested on: SNB-19 CNS
# MALME-3M melanoma = tested on: MALME-3M melanoma
# COLO 205 colon = tested on: COLO 205 colon
# CCRF-CEM leukemia = tested on: CCRF-CEM leukemia
# UACC-62 melanoma = tested on: UACC-62 melanoma
compound,measurement,setting,value
COc1cc(OC)c2[nH]c3c(O)c(-c4c(C)cc5c([nH]c6c(OC)cc(OC)cc65)c4O)c(C)cc3c2c1,TGI,DU-145 prostate,15 µM
same,GI50,HL-60(TB) leukemia,2.82 µM
same,TGI,HL-60(TB) leukemia,10.5 µM
same,TGI,KM12 colon,23.8 µM
same,GI50,A498 renal,7.82 µM
same,TGI,A498 renal,14.8 µM
same,TGI,ACHN renal,15.8 µM
same,TGI,NCI-H522 lung,16.6 µM
same,TGI,EKVX NSCLC,12.7 µM
same,TGI,PC-3 prostate,15.2 µM
same,GI50,MDA-N,8.83 µM
same,TGI,MDA-N,15.7 µM
same,GI50,K-562 leukemia,9.7 µM
same,TGI,K-562 leukemia,20.5 µM
same,GI50,HCT-15 colon,8.28 µM
same,TGI,HCT-15 colon,16.9 µM
same,TGI,NCI/ADR-RES ovarian,16.6 µM
same,TGI,UACC-257 melanoma,19 µM
same,TGI,NCI-H460 lung,16.6 µM
same,TGI,U251 CNS,50 µM
same,TGI,HS 578T breast,20.2 µM
same,TGI,HCT-116 colon,15.7 µM
same,GI50,MDA-MB-435,12 µM
same,TGI,MDA-MB-435,24.9 µM
same,TGI,SF-268 CNS,15.9 µM
same,TGI,SK-MEL-2 melanoma,17.4 µM
same,TGI,LOX IMVI melanoma,14.6 µM
same,TGI,OVCAR-8 ovarian,15.3 µM
same,TGI,IGROV1 ovarian,13.7 µM
same,TGI,SW-620 colon,20.3 µM
same,TGI,M14 melanoma,15.5 µM
same,GI50,HT29 colon,8.03 µM
same,TGI,HT29 colon,14.8 µM
same,TGI,OVCAR-4 ovarian,21.4 µM
same,TGI,786-0 renal,15.1 µM
same,TGI,HOP-62 NSCLC,23.9 µM
same,GI50,NCI-H23 lung,8.2 µM
same,TGI,NCI-H23 lung,16.7 µM
same,GI50,RPMI-8226 leukemia,10.5 µM
same,TGI,RPMI-8226 leukemia,23.7 µM
same,GI50,SF-295 CNS,10.2 µM
same,TGI,SF-295 CNS,21.8 µM
same,TGI,BT-549 breast,16.1 µM
same,TGI,TK-10 renal,17.9 µM
same,GI50,SK-MEL-5 melanoma,8.38 µM
same,TGI,SK-MEL-5 melanoma,15.2 µM
same,TGI,SNB-75 CNS,15.5 µM
same,TGI,A549 NSCLC,13.3 µM
same,GI50,UO-31 renal,6.83 µM
same,TGI,UO-31 renal,13.3 µM
same,TGI,HOP-92 NSCLC,15.6 µM
same,GI50,MOLT-4 leukemia,8.59 µM
same,TGI,MOLT-4 leukemia,21.9 µM
same,TGI,SK-MEL-28 melanoma,19.5 µM
same,TGI,NCI-H226 lung,17.6 µM
same,TGI,MDA-MB-231 breast,19.1 µM
same,GI50,CAKI-1 renal,9.89 µM
same,TGI,CAKI-1 renal,22.1 µM
same,TGI,OVCAR-3 ovarian,18.6 µM
same,TGI,HCC-2998 colon,15.3 µM
same,GI50,MCF7 breast,8.68 µM
same,TGI,MCF7 breast,18.9 µM
same,TGI,RXF 393 renal,16.8 µM
same,TGI,SF-539 CNS,16.8 µM
same,TGI,T-47D breast,17.7 µM
same,GI50,SR leukemia,9.01 µM
same,TGI,SR leukemia,20 µM
same,GI50,OVCAR-5 ovarian,9.03 µM
same,TGI,OVCAR-5 ovarian,16.2 µM
CCOC(=O)/C=C(/C)Nc1nc2c(c(C(=O)OC)c1C#N)CCCC2,TGI,SN12C renal,> 100 µM
same,TGI,DU-145 prostate,> 100 µM
same,TGI,HL-60(TB) leukemia,> 100 µM
same,TGI,KM12 colon,> 100 µM
same,TGI,A498 renal,> 100 µM
same,TGI,ACHN renal,> 100 µM
same,TGI,NCI-H522 lung,> 100 µM
same,TGI,EKVX NSCLC,> 100 µM
same,TGI,PC-3 prostate,> 100 µM
same,TGI,MDA-N,> 100 µM
same,TGI,K-562 leukemia,> 100 µM
same,TGI,HCT-15 colon,> 100 µM
same,TGI,NCI/ADR-RES ovarian,> 100 µM
same,TGI,UACC-257 melanoma,> 100 µM
same,TGI,NCI-H460 lung,> 100 µM
same,TGI,U251 CNS,> 100 µM
same,TGI,HS 578T breast,> 100 µM
same,TGI,HCT-116 colon,> 100 µM
same,TGI,MDA-MB-435,> 100 µM
same,TGI,SF-268 CNS,> 100 µM
same,TGI,SK-MEL-2 melanoma,> 100 µM
same,TGI,LOX IMVI melanoma,> 100 µM
same,TGI,OVCAR-8 ovarian,> 100 µM
same,TGI,IGROV1 ovarian,> 100 µM
same,TGI,SW-620 colon,> 100 µM
same,TGI,M14 melanoma,> 100 µM
same,TGI,HT29 colon,> 100 µM
same,TGI,OVCAR-4 ovarian,> 100 µM
same,TGI,786-0 renal,> 100 µM
same,TGI,HOP-62 NSCLC,> 100 µM
same,TGI,NCI-H23 lung,> 100 µM
same,TGI,RPMI-8226 leukemia,> 100 µM
same,TGI,SF-295 CNS,> 100 µM
same,TGI,BT-549 breast,> 100 µM
same,TGI,TK-10 renal,> 100 µM
same,TGI,SK-OV-3 ovarian,> 100 µM
same,TGI,SK-MEL-5 melanoma,> 100 µM
same,TGI,SNB-19 CNS,> 100 µM
same,TGI,A549 NSCLC,> 100 µM
same,TGI,UO-31 renal,> 100 µM
same,TGI,HOP-92 NSCLC,> 100 µM
same,TGI,MOLT-4 leukemia,> 100 µM
same,TGI,SK-MEL-28 melanoma,> 100 µM
same,TGI,NCI-H226 lung,> 100 µM
same,TGI,MDA-MB-231 breast,> 100 µM
same,TGI,CAKI-1 renal,> 100 µM
same,TGI,HCC-2998 colon,> 100 µM
same,TGI,MALME-3M melanoma,> 100 µM
same,TGI,MCF7 breast,> 100 µM
same,TGI,RXF 393 renal,> 100 µM
same,TGI,T-47D breast,> 100 µM
same,TGI,COLO 205 colon,> 100 µM
same,TGI,SR leukemia,> 100 µM
same,TGI,OVCAR-5 ovarian,> 100 µM
same,TGI,CCRF-CEM leukemia,> 100 µM
same,TGI,UACC-62 melanoma,> 100 µM
